Experimental data from patent US20210128567A1, “Compositions and Methods for Cognitive, Immune and Digestive Support in Patients with Autism Spectrum Disorder” (FLAASK, LLC, priority 2017, published 2021).

Tested on: children with confirmed ASD diagnoses
Experiment: Outcome of therapies received prior to the subject treatment, as reported by parents
Format: in vivo, human

Row | Compound | result of prior 5-metylhydrofolate and Metylcobalamin B-12 (patient one, given together) | result of prior treatment by Valtrex and Viferon (patient one, given together) | result of prior Valtrex, according to parents the most effective prior therapy (patient two)
1 | CN1c2c(nc(N)[nH]c2=O)NCC1CNc1ccc(C(=O)N[C@@H](CCC(=O)O)C(=O)O)cc1 (stereo partly shown) [5-metylhydrofolate] | more self-dependence | – | –
2 | CC(C)[C@H](N)C(=O)OCCOCn1cnc2c(=O)[nH]c(N)nc21 [Valtrex, valacyclovir] | – | they are getting sick more rarely, learned to swim and to communicate through PECS cards | they became more communicative, attempts to speak appeared, became calmer, eye contact has improved
3 | Metylcobalamin B-12 | more self-dependence | – | –
